In one series the test system is rats. The conditions noted are these: cited from earlier work.
The subject of the next series is mice. The conditions noted are these: cited from earlier work.
The subject of a further series is humans. The conditions noted are these: lorazepam 3×1 mg daily; buspirone 3×5 mg daily; cited from earlier work.
A further series deals with Wistar rats. In words: Elevated plus-maze test of anxiety. It is filed as in vivo, rat. The conditions noted are these: FIG. 2. Here is the method: For laboratory studies, we used an ethyl alcoholic Echinacea purpurea root tincture prepared by FitoChem Ltd. (H-2200 Monor, 14 Kossuth Str, ww.fitochem.hu), on the 21st of February, 2006 (Lot number FECH-010011205; analytical ID: 052/06). The dry residue was 1.7% w/w, whereas the lead content was less than 10 μg/g. Microbiological analysis provided satisfactory results (e.g. the total plate count was less than 1000 CFU/g). The extract containing 70% ethyl alcohol was stored at room temperature (validity date under these conditions: March, 2007), and used in experiments in April-May, 2006. Before use, ethyl alcohol was evaporated in vacuum at 4° C. by means of a Speed Vac Concentrator (Savant Instruments Inc., Farmingdale, USA). […] The dose was expressed as mg dry residue/kg body weight. […]
This test was described first by Pellow et al. (1984), and later became one of the most popular anxiety tests, frequently used for the identification of putative anxiolytics. […] To avoid confounds with anxiety, the locomotor effects of compounds are evaluated based on closed arm entries (Hogg, 1996).
The elevated plus-maze (arm length 50 cm, arm width 17 cm; wall height 30 cm; platform height 80 cm) was made of dark grey painted wood, and lit by 4 white lamps of 40 W each (approximately 200 lx). […] Behaviors were scored by experimenters blind to treatment conditions by means of a computer based event recorder. […]

Structures are written as SMILES. “Also recorded” adds a separate entry of the source.

As for `Cc1c(C(=O)NN2CCCCC2)nn(-c2ccc(Cl)cc2Cl)c1-c1ccc(Cl)cc1` [SR-141716A], in the series with rats, the “effect on anxiety in rats” value was “anxiogenic”. The “effect on anxiety in mice” value with mice is reported as “anxiolytic”.
For the compound `O=C1CC2(CCCC2)CC(=O)N1CCCCN1CCN(c2ncccn2)CC1` [buspirone], in the series with humans, the “time to significant effects over placebo on State-Trait Anxiety Inventory scores” value is on record as 3 weeks and the “treatment time to State-Trait anxiety scores lower than 45” value is listed as 6 weeks.
On to `O=C1Nc2ccc(Cl)cc2C(c2ccccc2Cl)=NC1O` (centres unmarked) [lorazepam], for which, in the series with humans, the “time to significant effects over placebo on State-Trait Anxiety Inventory scores” value is “one week” and the “treatment time to State-Trait anxiety scores lower than 45” value was “three weeks”.
On to `Cc1c(C(=O)NN2CCCCC2)nn(-c2ccc(Cl)cc2Cl)c1-c1ccc(I)cc1` [AM-251], for which the “effect on anxiety in mice” value in the series on mice was “anxiogenic”.
Turning to `CNC1=Nc2ccc(Cl)cc2C(c2ccccc2)=[N+]([O-])C1` [chlordiazepoxide], the “locomotor behavior (closed arm entries) / sedation” value in the series with Wistar rats is on record as “highly sedative at higher doses; also recorded: significant locomotor suppression”.

The record behind these values is patent US8206762B2, “Use of Echinacea or preparations thereof in compositions for the treatment of anxiety” (priority 2006, dated 2012).
